Counter-ions that a name gives are not always drawn.

Settings in the first series: not given
From the text: The solubility of the drug (Q) to be used in the drug sustained-releasing medical contact lens of the present invention in water may be calculated by using the following equation.
Compound sodium azulene sulfonate hydrate had a Solubility in water of 2.15%. The same measure, in the same setting: the figure for `CCNC(=O)CCC/C=C\C[C@@H]1[C@@H](/C=C/[C@@H](O)CCc2ccccc2)[C@H](O)C[C@@H]1O` [bimatoprost] is 0.55%.

As for cyanocobalamin, the Solubility in water is 2.15%. For the compound `Nc1nc2c(ncn2COCCO)c(=O)[nH]1` [acyclovir], the Solubility in water was determined as 0.16%. In turn, `NC(=O)Cc1cccc(C(=O)c2ccccc2)c1N` [nepafenac] returned a Solubility in water of 0.01%. In the case of `COc1c(N2CCNC(C)C2)c(F)cc2c(=O)c(C(=O)O)cn(C3CC3)c12` (centres unmarked) [gatifloxacin], the Solubility in water was determined as 0.55%.

In turn, `C[C@@H]1C[C@H]2[C@@H]3CCC4=CC(=O)C=C[C@]4(C)[C@@]3(F)[C@@H](O)C[C@]2(C)[C@@]1(O)C(=O)COC(=O)c1cccc(S(=O)(=O)[O-])c1.[Na+]` [dexamethasone sodium sulfobenzoate] registered a Solubility in water of 0.55%. `CCn1cc(C(=O)O)c(=O)c2cc(F)c(N3CCNCC3)cc21` [norfloxacin] showed a Solubility in water of 0.01%. Still for that read-out and setting: the figure for `CCn1cc(C(=O)O)c(=O)c2cc(F)c(N3CCNC(C)C3)c(F)c21` (centres unmarked) [lomefloxacin hydrochloride] is 0.55%; for `NC1CCN(c2nc3c(cc2F)c(=O)c(C(=O)O)cn3-c2ccc(F)cc2F)C1` (centres unmarked) [tosufloxacin tosilate hydrate] it is 0.01%; for `CCCCCCCC(=O)CC[C@@H]1[C@@H](C/C=C\CCCC(=O)OC(C)C)[C@@H](O)C[C@H]1O` [isopropyl unoprostone] it is 0.01%. `O=C(O)Cc1ccccc1Nc1c(Cl)cccc1Cl` [diclofenac sodium]: the Solubility in water is given as 0.24%. Compound `CN(C)CC/C=C1/c2ccccc2COc2ccc(CC(=O)O)cc21` [olopatadine hydrochloride] had a Solubility in water of 2.15%.

In the case of `O=C(O)c1cc(O)c2c3nc4ccccc4oc-3cc(=O)c2n1` [pirenoxine], the Solubility in water came out at 0.01%. Regarding sodium hyaluronate, the Solubility in water was 2.15%. On the same count and under the same terms, the figure for `O=C(NC(Cc1cc(=O)[nH]c2ccccc12)C(=O)O)c1ccc(Cl)cc1` (centres unmarked) [rebamipide] is 0.01%; for `C[C@@H]1C[C@H]2[C@@H]3CCC4=CC(=O)C=C[C@]4(C)[C@@]3(F)[C@@H](O)C[C@]2(C)[C@@]1(O)C(=O)CO` [dexamethasone] it is 0.01%. The compound `COc1ccc(/C=C/C(=O)Nc2ccccc2C(=O)O)cc1OC` [tranilast] showed a Solubility in water of 0.01%. Compound `CC(C)OC(=O)CCC/C=C\C[C@@H]1[C@@H](/C=C/C(F)(F)COc2ccccc2)[C@H](O)C[C@@H]1O` [tafluprost] had a Solubility in water of 0.01%. In turn, `CC(C(=O)O)c1ccc2c(c1)Cc1cccnc1O2` (centres unmarked) [pranoprofen] showed a Solubility in water of 0.01%. `CC(C)OC(=O)CCC/C=C\C[C@@H]1[C@@H](CC[C@@H](O)CCc2ccccc2)[C@H](O)C[C@@H]1O` [latanoprost] showed a Solubility in water of 0.01%. Same read-out and setting: the figure for `CC(C)OC(=O)CCC/C=C\C[C@@H]1[C@@H](/C=C/[C@@H](O)COc2cccc(C(F)(F)F)c2)[C@H](O)C[C@@H]1O` [travoprost] is 0.01%; for `COc1ccc2c(c1)c(CC(=O)O)c(C)n2C(=O)c1ccc(Cl)cc1` [indomethacin] it is 0.00009%. Compound `CCN[C@H]1CN(CCCOC)S(=O)(=O)c2sc(S(N)(=O)=O)cc21` [brinzolamide] registered a Solubility in water of 0.055%. Same read-out and setting: the figure for `CC(=O)OCC(=O)[C@@]1(O)CC[C@H]2[C@@H]3CCC4=CC(=O)CC[C@]4(C)[C@H]3[C@@H](O)C[C@@]21C` [hydrocortisone acetate] is 0.0014%.

`C[C@@H]1CN([C@H]2CC[C@](C#N)(c3ccc(F)cc3)CC2)CC[C@]1(C(=O)O)c1ccccc1` [levocabastine hydrochloride] displayed a Solubility in water of 0.01%. In turn, `O=C(O)C(=O)Nc1cccc(-c2nnn[nH]2)c1` [acitazanolast hydrate] showed a Solubility in water of 0.55%. Compound `CO/N=C(\C(=O)N[C@@H]1C(=O)N2C(C(=O)O)=C(CSc3nnnn3C)CS[C@H]12)c1csc(N)n1` [cefmenoxime] returned a Solubility in water of 0.055%. Compound `CC(=O)[C@@]1(O)CC[C@H]2[C@@H]3C[C@H](C)C4=CC(=O)C=C[C@]4(C)[C@@]3(F)[C@@H](O)C[C@@]21C` [fluorometholone] had a Solubility in water of 0.003%.

The compound `CCCC(=O)N1CCCN(c2nc(N)c3cc(OC)c(OC)cc3n2)CC1` [bunazosin hydrochloride] showed a Solubility in water of 0.55%. Same read-out and setting: the figure for `CN1CCC(=C2c3ccccc3CC(=O)c3sccc32)CC1` [ketotifen fumarate] is 0.55%.

Staying with this series, now noted: water at 25° C.; 0.01 g of drug / mass of water needed for dissolving x100.
As for `CC(C)c1ccc2oc3nc(N)c(C(=O)O)cc3c(=O)c2c1` [amlexanox], the Solubility in water is recorded as 0.01%.

Source of the values: patent US20180314077A1, “DRUG SUSTAINED-RELEASING MEDICAL CONTACT LENS” (NOF CORPORATION, priority 2015, published 2018).
